Test results from US20160176867A1, “MODIFIED BET-PROTEIN-INHIBITING DIHYDROQUINOXALINONES AND DIHYDROPYRIDOPYRAZINONES” (BAYER PHARMA AKTIENGESELLSCHAFT, priority 2013, published 2016).

Legend:
[1] = molecular target: T1, BRD4 bromo domain 1 [BRD4(1)] (Homo sapiens, UniProt O60885); assay: BRD4/acetylated peptide H4 binding assay (TR-FRET), BRD4 bromo domain 1; conditions: inhibition of BRD4(1)/Ac-H4 peptide interaction
T1 construct: N-terminally His6-tagged BRD4(1) (amino acids 67-152); made in house; host or cells: E. coli
Summary of the method: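 TR-FRET (665/620 nm ratio) measuring displacement of biotinylated tetra-acetylated H4 peptide from His6-BRD4(1) (aa 67-152, E. coli; typically 10 nM) at pH 7.5. Compound (11 concentrations, 0.1 nM–20 μM, duplicates) was preincubated 10 min at 22°C, then 1 h at 22°C and ≥3 h at 4°C; IC50 from 4-parameter fit normalized to DMSO and no-BRD4 controls.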

[2] = molecular target: T2, BRD4 bromo domain 2 [BRD4(2)] (Homo sapiens, UniProt O60885); assay: BRD4/acetylated peptide H4 binding assay (TR-FRET), BRD4 bromo domain 2; conditions: inhibition of BRD4(2)/Ac-H4 peptide interaction
T2 construct: N-terminally His6-tagged BRD4(2) (amino acids 357-445); made in house; host or cells: E. coli
Summary of the method: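 IC50 comes from a 4-parameter fit over 0.1 nM–20 μM in duplicate, normalised to DMSO and no-protein controls. TR-FRET (Eu-streptavidin/anti-His-XL665) tracks His-tagged BRD4(2) 357-445 at 100 nM binding Ac-H4 peptide in HEPES pH 7.5 buffer. Incubation was 1 h at 22 °C, then at 4 °C ≥3 h up to overnight.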

IC50 [1] [nM]	IC50 [2] [nM]	SMILES
452	579	COc1c(Nc2ccc3c(n2)N(C2CCOCC2)[C@H](C)C(=O)N3C)cccc1C(=O)N1CCN(C)CC1 [Example 92, (3R)-6-({2-methoxy-3-[(4-methylpiperazin-1-yl)carbonyl]phenyl}-amino)-1,3-dimethyl-4-(tetrahydro-2H-pyran-4-yl)-3,4-dihydropyrido[2,3-b]pyrazin-2(1H)-one]
501	573	C[C@@H]1C(=O)N(C)c2ccc(Nc3cccc(C(=O)NC4CCN(C)CC4)c3)nc2N1C1CCC(C)(C)CC1 [Example 96, 3-{[(3R)-4-(4,4-dimethylcyclohexyl)-1,3-dimethyl-2-oxo-1,2,3,4-tetrahydropyrido[2,3-b]pyrazin-6-yl]amino}-N-(1-methylpiperidin-4-yl)benzamide]
788	687	C[C@@H]1C(=O)N(C)c2ccc(Nc3cccc(C(=O)N[C@H]4CC[C@H](N5CCN(CC6CC6)CC5)CC4)c3)nc2N1C1CCN(C(=O)OC(C)(C)C)CC1 [Example 102, tert-butyl 4-[(3R)-6-{[3-({trans-4-[4-(cyclopropl-methyl)piperazin-1-yl]cyclohexyl}carbamoyl)phenyl]amino}-1,3-dimethyl-2-oxo-2,3-dihydropyrido[2,3-b]pyrazin-4(1H)-yl]piperidine-1-carboxylate]
322	127	C[C@@H]1C(=O)N(C)c2ccc(Nc3cccc(C(=O)NC4CCC(O)CC4)c3)nc2N1C1CCCCC1 (stereo partly drawn) [Example 86, 3-{[(3R)-4-cyclohexyl-1,3-dimethyl-2-oxo-1,2,3,4-tetrahydropyrido[2,3-b]pyrazin-6-yl]amino}-N-(4-hydroxycyclohexyl)-benzamide]
